According to PMC3171734 (2011):

T1: dimethylarginine dimethylaminohydrolase (P. aeruginosa DDAH) (Pseudomonas aeruginosa, UniProt Q9I4E3)
T1 sequence (Q9I4E3 1-254): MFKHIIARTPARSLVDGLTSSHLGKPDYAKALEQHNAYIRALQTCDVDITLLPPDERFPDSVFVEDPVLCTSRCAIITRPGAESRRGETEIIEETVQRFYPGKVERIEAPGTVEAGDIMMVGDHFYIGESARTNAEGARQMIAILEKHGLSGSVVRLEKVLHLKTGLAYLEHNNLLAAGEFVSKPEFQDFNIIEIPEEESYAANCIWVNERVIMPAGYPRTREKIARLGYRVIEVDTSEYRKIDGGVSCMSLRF

B1: dimethylarginine dimethylaminohydrolase (P. aeruginosa DDAH) (Pseudomonas aeruginosa PAO1) (protein)
chain: T1 sequence (Q9I4E3 1-254)

Tests used:
[1] = target: human DDAH-1 (Homo sapiens, UniProt O94760); assay: dose-dependent inhibition of isolated enzyme; assay type: biochemical
[2] = target: T1, dimethylarginine dimethylaminohydrolase (P. aeruginosa DDAH); assay: dose-dependent inhibition of isolated enzyme; assay type: biochemical
[3] = substrate: CSC(=N)NCCC[C@H](N)C(=O)O; assay: steady-state kinetics, DTNB-coupled 384-well assay; assay type: biochemical, Pseudomonas aeruginosa

Sequence of human DDAH-1 (O94760 2-285): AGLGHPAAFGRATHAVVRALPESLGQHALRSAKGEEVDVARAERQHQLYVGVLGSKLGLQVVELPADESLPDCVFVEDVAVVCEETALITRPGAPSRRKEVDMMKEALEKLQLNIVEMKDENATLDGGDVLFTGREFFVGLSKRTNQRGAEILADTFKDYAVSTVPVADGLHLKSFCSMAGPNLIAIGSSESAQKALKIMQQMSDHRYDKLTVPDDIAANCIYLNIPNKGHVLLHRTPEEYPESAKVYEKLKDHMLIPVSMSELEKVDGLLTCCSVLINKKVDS

Molecule | IC50 [1] [nM] | IC50 [2] [nM] | Km [3] [µM]
O=c1c2ccccc2[se]n1-c1ccccc1 [ebselen] | 330 ± 30 | 96 ± 2 | –
B1 | – | – | 22 ± 1
